Patent US20130109682A1, “CYCLIC ETHER COMPOUNDS USEFUL AS KINASE INHIBITORS” (NOVARTIS AG, priority 2010, published 2013)
pIC50: −log10 of the molar value.

Key:
Type in all cases: biochemical
GSK3β = GSK3β (Homo sapiens, UniProt P49841); test: GSK3β ATP depletion assay; conditions: read-out: GSK3b IC50
Description: GSK3β ATP Depletion Assay
The activity of GSK3β is measured using a luciferase-luciferin based ATP detection reagent to quantify ATP depletion resulting from kinase-catalyzed phosphoryl transfer to a peptide substrate. Compounds to be tested are dissolved in 100% DMSO and directly distributed into white 384-well plates at 0.5 μl per well. To start the reaction, 10 μl of 10 nM GSK3B kinase and 20 μM biotinylated CREB peptide ([…](pS)YR-NH2) in assay buffer (50 mM TRIS pH 7.5, 15 mM MgCl2, 1 mM DTT, 0.1% BSA) is added into each well. After 15 minutes, 10 μl of 2 μM ATP in assay buffer is added. Final assay concentrations are 5 nM GSK3B, […], 10 μM b-CREB peptide and 2.5% DMSO. The reaction is performed until approximately 50% of the ATP is depleted, then stopped with the addition of 20 μl KinaseGlo (Promega Corporation) solution. The stopped reaction is incubated for 10 minutes and the remaining ATP is detected via luminescence on the Victor2 (Perkin Elmer).

PIM2 = PIM2 (Homo sapiens, UniProt Q9P1W9); test: KinaseGlo Pim2 ATP depletion assay
Chain of PIM2 (Q9P1W9 whole entry): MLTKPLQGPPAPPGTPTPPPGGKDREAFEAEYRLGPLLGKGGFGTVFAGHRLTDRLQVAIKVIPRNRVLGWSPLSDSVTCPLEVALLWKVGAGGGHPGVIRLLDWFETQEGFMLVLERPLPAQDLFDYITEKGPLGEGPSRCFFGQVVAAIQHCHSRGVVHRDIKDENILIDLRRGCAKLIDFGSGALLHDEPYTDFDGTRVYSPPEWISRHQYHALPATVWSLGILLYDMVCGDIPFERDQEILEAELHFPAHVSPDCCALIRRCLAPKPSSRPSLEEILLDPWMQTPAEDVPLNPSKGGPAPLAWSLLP
Description: KinaseGlo Pim2 ATP Depletion Assay
The activity of PIM2 is measured using a luciferase-luciferin based ATP detection reagent to quantify ATP depletion resulting from kinase-catalyzed phosphoryl transfer to a peptide substrate. Compounds to be tested are dissolved in 100% DMSO and directly distributed into white 384-well plates at 0.5 piper well. To start the reaction, 10 μl of 10 nM Pim2 kinase and 20 μM BAD peptide (RSRHSSYPAGT-OH) in assay buffer (50 mM HEPES pH 7.5, 5 mM MgCl2, 1 mM DTT, 0.05% BSA) is added into each well. After 15 minutes, 10 μl of 8 μM ATP in assay buffer is added. Final assay concentrations are 5 nM PIM2, 4 μM ATP, 10 μM BAD peptide and 2.5% DMSO. The reaction is performed until approximately 50% of the ATP is depleted, then stopped with the addition of 20 μl KinaseGlo Plus (Promega Corporation) solution. The stopped reaction is incubated for 10 minutes and the remaining ATP detected via luminescence on the Victor2 (Perkin Elmer).

PIM3 = PIM3 (Homo sapiens, UniProt Q86V86); test: KinaseGlo Pim3 ATP depletion assay
Description: KinaseGlo Pim3 ATP Depletion Assay
The activity of PIM3 is measured using a luciferase-luciferin based ATP detection reagent to quantify ATP depletion resulting from kinase-catalyzed phosphoryl transfer to a peptide substrate. Compounds to be tested are dissolved in 100% DMSO and directly distributed into white 384-well plates at 0.5 μl per well. To start the reaction, 10 μl of 10 nM Pim3 kinase and 200 μM BAD peptide (RSRHSSYPAGT-OH) in assay buffer (50 mM HEPES pH 7.5, 5 mM MgCl2, 1 mM DTT, 0.05% BSA) is added into each well. After 15 minutes, 10 μl of 80 μM ATP in assay buffer is added. Final assay concentrations are 5 nM […], 40 μM ATP, 100 μM BAD peptide and 2.5% DMSO. The reaction is performed until approximately 50% of the ATP is depleted, then stopped by the addition of 20 μl KinaseGlo Plus (Promega Corporation) solution. The stopped reaction is incubated for 10 minutes and the remaining ATP detected via luminescence on the Victor2 (Perkin Elmer).

PIM1 = PIM1 (Homo sapiens, UniProt P11309); test: KinaseGlo Pim1 ATP depletion assay
Chain of PIM1 (P11309 whole entry): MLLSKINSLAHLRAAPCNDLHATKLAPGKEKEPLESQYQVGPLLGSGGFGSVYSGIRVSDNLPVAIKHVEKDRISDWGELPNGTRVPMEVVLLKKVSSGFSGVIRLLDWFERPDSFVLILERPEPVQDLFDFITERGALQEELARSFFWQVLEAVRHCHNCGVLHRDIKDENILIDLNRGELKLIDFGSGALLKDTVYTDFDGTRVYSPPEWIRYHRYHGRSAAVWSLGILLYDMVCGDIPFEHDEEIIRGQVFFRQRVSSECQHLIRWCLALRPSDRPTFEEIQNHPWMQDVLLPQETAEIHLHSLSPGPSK
Description: KinaseGlo Pim1 ATP Depletion Assay
The activity of PIM1 is measured using a luciferase-luciferin based ATP detection reagent to quantify ATP depletion resulting from kinase-catalyzed phosphoryl transfer to a peptide substrate. Compounds to be tested are dissolved in 100% DMSO and directly distributed into white 384-well plates at 0.5 μA per well. To start the reaction, 10 μA of 5 nM Pim1 kinase and 80 μM BAD peptide (RSRHSSYPAGT-OH) in assay buffer (50 mM HEPES pH 7.5, 5 mM MgCl2, 1 mM DTT, 0.05% BSA) is added into each well. After 15 minutes, 10 μl of 40 μM ATP in assay buffer is added. Final assay concentrations are 2.5 nM PIM1, 20 μM ATP, 40 μM BAD peptide and 2.5% DMSO. The reaction is performed until approximately 50% of the ATP is depleted, then stopped with the addition of 20 μA KinaseGlo Plus (Promega Corporation) solution. The stopped reaction is incubated for 10 minutes and the remaining ATP detected via luminescence on the Victor2 (Perkin Elmer). […] IC50, the half maximal inhibitory concentration, represents the concentration of a test compound that is required for 50% inhibition of its target in vitro.

Chain of GSK3β (P49841 whole entry, species assumed): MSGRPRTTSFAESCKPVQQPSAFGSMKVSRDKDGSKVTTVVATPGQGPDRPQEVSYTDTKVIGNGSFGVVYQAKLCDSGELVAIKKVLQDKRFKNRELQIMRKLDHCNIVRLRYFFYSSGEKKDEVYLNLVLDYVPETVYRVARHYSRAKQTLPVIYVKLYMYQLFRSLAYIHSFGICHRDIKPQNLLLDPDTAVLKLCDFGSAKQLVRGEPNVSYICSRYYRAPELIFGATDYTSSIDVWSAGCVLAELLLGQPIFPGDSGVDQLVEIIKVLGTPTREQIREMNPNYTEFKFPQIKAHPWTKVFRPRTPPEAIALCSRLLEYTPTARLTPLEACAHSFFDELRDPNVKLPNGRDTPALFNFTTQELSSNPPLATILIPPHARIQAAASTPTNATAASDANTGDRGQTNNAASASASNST

SMILES	pIC50 (GSK3β)	pIC50 (PIM2)	pIC50 (PIM3)	pIC50 (PIM1)
O=C(Nc1cnccc1[C@@]1(C(F)(F)F)C[C@@H](O)C=CO1)c1ccc(F)c(-c2c(F)cccc2F)n1 [Example 48, 6-(2,6-difluorophenyl)-5-fluoro-N-(4-((2R,4R)-4-hydroxy-2-(trifluoromethyl)-3,4-dihydro-2H-pyran-2-yl)pyridin-3-yl)picolinamide]	5.44	4.71	5.75	7.14
O=C(Nc1cnccc1[C@]1(C(F)(F)F)C[C@H](O)CCO1)c1ccc(F)c(-c2c(F)cccc2F)n1 [Example 50, 6-(2,6-difluorophenyl)-5-fluoro-N-(4-((2S,4R)-4-hydroxy-2-(trifluoromethyl)tetrahydro-2H-pyran-2-yl)pyridin-3-yl)picolinamide]	6.71	5.67	6.96	7.55
O=C(Nc1cnccc1[C@@]1(C(F)(F)F)CCCCO1)c1ccc(F)c(-c2c(F)cccc2F)n1 [Example 51, (R)-6-(2,6-difluorophenyl)-5-fluoro-N-(4-(2-(trifluoromethyl)tetrahydro-2H-pyran-2-yl)pyridin-3-yl)picolinamide]	5.43	5.13	6.21	7.27
O=C(Nc1cnccc1[C@]1(C(F)(F)F)CCCCO1)c1ccc(F)c(-c2c(F)cccc2F)n1 [Example 52, (S)-6-(2,6-difluorophenyl)-5-fluoro-N-(4-(2-(trifluoromethyl)tetrahydro-2H-pyran-2-yl)pyridin-3-yl)picolinamide]	6.16	5.37	6.91	7.54
O=C(Nc1cnccc1[C@@]1(C(F)(F)F)C[C@@H](O)CCO1)c1ccc(F)c(-c2c(F)cccc2F)n1 [Example 53, 6-(2,6-difluorophenyl)-5-fluoro-N-(4-((2R,4S)-4-hydroxy-2-(trifluoromethyl)tetrahydro-2H-pyran-2-yl)pyridin-3-yl)picolinamide]	5.51	4.99	6.07	7.11
NC(=O)C[C@H]1O[C@@H](c2ccncc2NC(=O)c2ccc(F)c(-c3c(F)cccc3F)n2)C[C@@H](O)[C@@H]1O [Example 159, N-(4-((2R,4R,5S,6R)-6-(2-amino-2-oxoethyl)-4,5-dihydroxytetrahydro-2H-pyran-2-yl)pyridin-3-yl)-6-(2,6-difluorophenyl)-5-fluoropicolinamide]		5.18	6.05	
CC[C@H]1O[C@@H](c2ccncc2NC(=O)c2c[nH]cc(-c3ccccc3)c2=O)C[C@@H](O)[C@@H]1O [Example 170, N-(4-((2R,4R,5S,6R)-6-ethyl-4,5-dihydroxytetrahydro-2H-pyran-2-yl)pyridin-3-yl)-4-oxo-5-phenyl-1,4-dihydropyridine-3-carboxamide]	5.45	4.93	5.88	5.84
O=C(Nc1cnccc1[C@@H]1C[C@H](O)[C@]2(O)CCCC[C@@H]2O1)c1c[nH]cc(-c2ccccc2)c1=O [Example 171, N-(4-((2S,4S,4aR,8aS)-4,4a-dihydroxyoctahydro-2H-chromen-2-yl)pyridin-3-yl)-4-oxo-5-phenyl-1,4-dihydropyridine-3-carboxamide]	< 4.60	< 4.60	4.97	5.08

Now those with a higher pIC50 (PIM2), led by results:

pIC50 (GSK3β)	pIC50 (PIM2)	pIC50 (PIM3)	pIC50 (PIM1)	SMILES
6.15	8.00	8.40	9.00	C[C@@H]1O[C@H](c2ccncc2NC(=O)c2ccc(F)c(-c3c(F)cccc3F)n2)C[C@H](O)[C@]1(O)CO [Example 19, 6-(2,6-difluorophenyl)-N-(4-((2S,4S,5R,6S)-4,5-dihydroxy-5-(hydroxymethyl)-6-methyltetrahydro-2H-pyran-2-yl)pyridin-3-yl)-5-fluoropicolinamide]
5.59	6.99	7.49	8.10	C[C@H]1O[C@@H](c2ccncc2NC(=O)c2ccc(F)c(-c3c(F)cccc3F)n2)C[C@@H](O)[C@@]1(O)CO [Example 20, 6-(2,6-difluorophenyl)-N-(4-((2R,4R,5S,6R)-4,5-dihydroxy-5-(hydroxymethyl)-6-methyltetrahydro-2H-pyran-2-yl)pyridin-3-yl)-5-fluoropicolinamide]
5.94	8.05	8.52	9.00	N#C[C@H]1OC(c2ccncc2NC(=O)c2ccc(F)c(-c3c(F)cccc3F)n2)=C[C@@H](O)[C@@H]1O [Example 21, N-(4-((2R,3S,4R)-2-cyano-3,4-dihydroxy-3,4-dihydro-2H-pyran-6-yl)pyridin-3-yl)-6-(2,6-difluorophenyl)-5-fluoropicolinamide]
5.37	5.90	6.47	7.17	N#CC[C@H]1O[C@@H](c2ccncc2NC(=O)c2ccc(C#N)c(-c3c(F)cccc3F)n2)CC[C@@H]1O [Example 45, 5-cyano-N-(4-((2R,5S,6R)-6-(cyanomethyl)-5-hydroxytetrahydro-2H-pyran-2-yl)pyridin-3-yl)-6-(2,6-difluorophenyl)picolinamide]
6.68	5.85	7.14	7.57	O=C(Nc1cnccc1[C@]1(C(F)(F)F)C[C@H](O)C=CO1)c1ccc(F)c(-c2c(F)cccc2F)n1 [Example 49, 6-(2,6-difluorophenyl)-5-fluoro-N-(4-((2S,4S)-4-hydroxy-2-(trifluoromethyl)-3,4-dihydro-2H-pyran-2-yl)pyridin-3-yl)picolinamide]
7.68	8.51	8.51	8.66	Nc1cnc(-c2c(F)cccc2F)nc1C(=O)Nc1cnccc1[C@H]1C[C@@H](O)[C@@]2(O)CCCC[C@H]2O1 [Example 172, 5-amino-2-(2,6-difluorophenyl)-N-(4-((2R,4R,4aS,8aR)-4,4a-dihydroxyoctahydro-2H-chromen-2-yl)pyridin-3-yl)pyrimidine-4-carboxamide]
6.73	8.00	8.40	9.00	O=C(Nc1cnccc1[C@H]1C[C@@H](O)[C@H](O)[C@@H](CF)O1)c1ccc(F)c(-c2c(F)cccc2F)n1 [Example 282, 6-(2,6-difluorophenyl)-5-fluoro-N-(4-((2R,4R,5S,6S)-6-(fluoromethyl)-4,5-dihydroxytetrahydro-2H-pyran-2-yl)pyridin-3-yl)picolinamide]
